Test results from patent publication US9963445B2, “Chemical compounds” (SYNGENTA PARTICIPATIONS AG, priority 2013, dated 2018).

Columns and labels:
Type in all cases: in vivo
[1] = tested on: Abutilon theophrasti; assay: Pre-emergence herbicidal activity, glasshouse pot test; conditions: pre-emergence spray, rate 1000 g/ha, evaluated after 13 days, scale 0-5
In short: (§1)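 Seeds sown in standard soil were sprayed one day after sowing, before emergence, with compound formulated in acetone/water (50:50) plus 0.5% Tween 20. Plants were grown at 24/16 °C day/night, 14 h light, 65% humidity, watered twice daily, and damage was scored after 13 days (0 = none, 5 = total).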

[2] = tested on: Alopecurus myosuroides; assay: as above; conditions: pre-emergence spray, rate 1000 g/ha, evaluated after 13 days, scale 0-5
In short: as §1

[3] = tested on: Amaranthus retroflexus; assay: as above; conditions: pre-emergence spray, rate 1000 g/ha, evaluated after 13 days, scale 0-5
In short: as §1

[4] = tested on: Echinochloa crus-galli; assay: as above; conditions: pre-emergence spray, rate 1000 g/ha, evaluated after 13 days, scale 0-5
In short: as §1

[5] = tested on: Setaria faberi; assay: as above; conditions: pre-emergence spray, rate 1000 g/ha, evaluated after 13 days, scale 0-5
In short: as §1

[6] = tested on: zea mays; assay: as above; conditions: pre-emergence spray, rate 1000 g/ha, evaluated after 13 days, scale 0-5
In short: as §1

[7] = tested on: Abutilon theophrasti; assay: Post-emergence herbicidal activity, glasshouse pot test; set-up: key: 0 = no damage to plant, 5 = total damage to plant; conditions: Application post-emergence, rate 1000 g/ha, evaluated after 13 days
In short: (§2)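 Damage rated 0 (none) to 5 (total) 13 days after spraying. Plants were treated post-emergence at 8 days after sowing, using an acetone/water (50:50) formulation with 0.5% Tween 20 diluted to an aqueous spray.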

[8] = tested on: Alopecurus myosuroides; assay: as above; set-up: key: 0 = no damage to plant, 5 = total damage to plant; conditions: Application post-emergence, rate 1000 g/ha, evaluated after 13 days
In short: as §2

[9] = tested on: Amaranthus retroflexus; assay: as above; set-up: key: 0 = no damage to plant, 5 = total damage to plant; conditions: Application post-emergence, rate 1000 g/ha, evaluated after 13 days
In short: as §2

[10] = tested on: Echinochloa crus-galli; assay: as above; set-up: key: 0 = no damage to plant, 5 = total damage to plant; conditions: Application post-emergence, rate 1000 g/ha, evaluated after 13 days
In short: as §2

[11] = tested on: Setaria faberi; assay: as above; set-up: key: 0 = no damage to plant, 5 = total damage to plant; conditions: Application post-emergence, rate 1000 g/ha, evaluated after 13 days
In short: as §2

[12] = tested on: zea mays; assay: as above; set-up: key: 0 = no damage to plant, 5 = total damage to plant; conditions: Application post-emergence, rate 1000 g/ha, evaluated after 13 days
In short: as §2

`CC1=C(Cl)C(=O)N(c2cc(C(C)C)ncn2)C1O` (stereo not drawn) [CF19] was tested, and the “ABUTH damage score, application pre-emergence” value (from here on “ABUTH damage score”) [1] was 5, the “ALOMY damage score, application pre-emergence” value (“ALOMY damage score” for short) [2] was 2 and the “AMARE damage score, application pre-emergence” value (“AMARE damage score” for short) [3] was 5. For the same compound, the “ECHCG damage score, application pre-emergence” value (“ECHCG damage score” for short) [4] was 4, the “SETFA damage score, application pre-emergence” value (“SETFA damage score” for short) [5] was 4 and the “ZEAMX damage score, application pre-emergence” value (“ZEAMX damage score” for short) [6] was 2. The “ABUTH herbicidal damage score” value [7] was 5, the “ALOMY herbicidal damage score” value [8] was 3 and the “AMARE herbicidal damage score” value [9] was 5. The “ECHCG herbicidal damage score” value [10] was 5, the “SETFA herbicidal damage score” value [11] was 5 and the “ZEAMX herbicidal damage score” value [12] was 3.
`COC1=C(C)C(O)N(c2cc(C(C)(C)C)c(-c3ccc(F)nc3)nn2)C1=O` (stereo not drawn) [BI30] was tested, and the “ABUTH damage score” value [1] was 5, the “ALOMY damage score” value [2] was 4 and the “AMARE damage score” value [3] was 5. For the same compound, the “ECHCG damage score” value [4] was 5, the “SETFA damage score” value [5] was 5 and the “ZEAMX damage score” value [6] was 4. For the same compound, the “ABUTH herbicidal damage score” value [7] was 5, the “ALOMY herbicidal damage score” value [8] was 5 and the “AMARE herbicidal damage score” value [9] was 5. For the same compound, the “ECHCG herbicidal damage score” value [10] was 5, the “SETFA herbicidal damage score” value [11] was 5 and the “ZEAMX herbicidal damage score” value [12] was 4.
In the case of `CC1=C(Br)C(=O)N(c2cc(C(F)(F)F)ccn2)C1O` (stereo not drawn) [AG1], the “ABUTH damage score” value [1] is reported as 5, the “ALOMY damage score” value [2] is reported as 2 and the “AMARE damage score” value [3] is reported as 5. The “ECHCG damage score” value [4] was 2, the “SETFA damage score” value [5] was 3 and the “ZEAMX damage score” value [6] was 0. The “ABUTH herbicidal damage score” value [7] was 5, the “ALOMY herbicidal damage score” value [8] was 4 and the “AMARE herbicidal damage score” value [9] was 5. For the same compound, the “ECHCG herbicidal damage score” value [10] was 5, the “SETFA herbicidal damage score” value [11] was 5 and the “ZEAMX herbicidal damage score” value [12] was 2.
For `CC1=C(Cl)C(=O)N(c2cc(C)ccn2)C1O` (stereo not drawn) [AF41], the “ABUTH damage score” value [1] was 5, the “ALOMY damage score” value [2] was 4 and the “AMARE damage score” value [3] was 5. The “ECHCG damage score” value [4] was 4, the “SETFA damage score” value [5] was 4 and the “ZEAMX damage score” value [6] was 3. For the same compound, the “ABUTH herbicidal damage score” value [7] was 5, the “ALOMY herbicidal damage score” value [8] was 5 and the “AMARE herbicidal damage score” value [9] was 5. The “ECHCG herbicidal damage score” value [10] was 5, the “SETFA herbicidal damage score” value [11] was 5 and the “ZEAMX herbicidal damage score” value [12] was 4.
With `C=C(OCC)c1nnc(N2C(=O)C(OC)=C(C)C2O)cc1C(C)(C)F` (stereo not drawn) [BI13] the “ABUTH damage score” value [1] was 5, the “ALOMY damage score” value [2] was 4 and the “AMARE damage score” value [3] was 5. The “ECHCG damage score” value [4] was 5, the “SETFA damage score” value [5] was 5 and the “ZEAMX damage score” value [6] was 2. For the same compound, the “ABUTH herbicidal damage score” value [7] was 5, the “ALOMY herbicidal damage score” value [8] was 5 and the “AMARE herbicidal damage score” value [9] was 5. The “ECHCG herbicidal damage score” value [10] was 5, the “SETFA herbicidal damage score” value [11] was 5 and the “ZEAMX herbicidal damage score” value [12] was 2.
In the case of `CC1=C(Cl)C(=O)N(c2nccc(C(C)(C)C)n2)C1O` (stereo not drawn) [DF2], the “ABUTH damage score” value [1] is reported as 5, the “ALOMY damage score” value [2] is reported as 4 and the “AMARE damage score” value [3] is reported as 5. For the same compound, the “ECHCG damage score” value [4] was 5, the “SETFA damage score” value [5] was 5 and the “ZEAMX damage score” value [6] was 2. For the same compound, the “ABUTH herbicidal damage score” value [7] was 5, the “ALOMY herbicidal damage score” value [8] was 5 and the “AMARE herbicidal damage score” value [9] was 5. The “ECHCG herbicidal damage score” value [10] was 5, the “SETFA herbicidal damage score” value [11] was 5 and the “ZEAMX herbicidal damage score” value [12] was 1.
In the case of `COC1=C(C)C(O)N(c2cc3c(nn2)CCCC3)C1=O` (stereo not drawn) [BI3], the “ABUTH damage score” value [1] is reported as 0, the “ALOMY damage score” value [2] is reported as 1 and the “AMARE damage score” value [3] is reported as 2. For the same compound, the “ECHCG damage score” value [4] was 4, the “SETFA damage score” value [5] was 0 and the “ZEAMX damage score” value [6] was 0. For the same compound, the “ABUTH herbicidal damage score” value [7] was 2, the “ALOMY herbicidal damage score” value [8] was 3 and the “AMARE herbicidal damage score” value [9] was 3. The “ECHCG herbicidal damage score” value [10] was 3, the “SETFA herbicidal damage score” value [11] was 5 and the “ZEAMX herbicidal damage score” value [12] was 1.
In the case of `CC1=C(Cl)C(=O)N(c2cc(C(F)(F)F)c(C(=O)NC(C)(C)C)cn2)C1O` (stereo not drawn) [AF88], the “ABUTH damage score” value [1] is reported as 5, the “ALOMY damage score” value [2] is reported as 4 and the “AMARE damage score” value [3] is reported as 5. For the same compound, the “ECHCG damage score” value [4] was 5, the “SETFA damage score” value [5] was 5 and the “ZEAMX damage score” value [6] was 4. For the same compound, the “ABUTH herbicidal damage score” value [7] was 5, the “ALOMY herbicidal damage score” value [8] was 5 and the “AMARE herbicidal damage score” value [9] was 5. The “ECHCG herbicidal damage score” value [10] was 5, the “SETFA herbicidal damage score” value [11] was 5 and the “ZEAMX herbicidal damage score” value [12] was 5.
With `CC1=C(Cl)C(=O)N(c2cc(C(C)(F)F)c(Cl)nn2)C1O` (stereo not drawn) [BF12] the “ABUTH damage score” value [1] was 3, the “ALOMY damage score” value [2] was 3 and the “AMARE damage score” value [3] was 5. The “ECHCG damage score” value [4] was 4, the “SETFA damage score” value [5] was 4 and the “ZEAMX damage score” value [6] was 2. The “ABUTH herbicidal damage score” value [7] was 4, the “ALOMY herbicidal damage score” value [8] was 4 and the “AMARE herbicidal damage score” value [9] was 5. For the same compound, the “ECHCG herbicidal damage score” value [10] was 5, the “SETFA herbicidal damage score” value [11] was 5 and the “ZEAMX herbicidal damage score” value [12] was 3.
With `COC1=C(C)C(O)N(c2cc3c(cn2)CCCC3)C1=O` (stereo not drawn) [AI7] the “ABUTH damage score” value [1] was 1, the “ALOMY damage score” value [2] was 2 and the “AMARE damage score” value [3] was 3. For the same compound, the “ECHCG damage score” value [4] was 5, the “SETFA damage score” value [5] was 5 and the “ZEAMX damage score” value [6] was 0. For the same compound, the “ABUTH herbicidal damage score” value [7] was 4, the “ALOMY herbicidal damage score” value [8] was 3 and the “AMARE herbicidal damage score” value [9] was 3. For the same compound, the “ECHCG herbicidal damage score” value [10] was 5, the “SETFA herbicidal damage score” value [11] was 5 and the “ZEAMX herbicidal damage score” value [12] was 1.
